Data on two molecules can be found in paper PMC5563081, “Modulating Protein-Protein Interactions of the Mitotic Polo-like Kinases to Target Mutant KRAS” (Cell Chemical Biology, 2017).

Like-named read-outs stand apart in the source and are kept apart here. Non-standard residues stand in square brackets, D forms with d. No end group written: not given here. *: point of attachment. TAMRA = tetramethyl-6-carboxy-rhodamine, CN(C)c1ccc2c(-c3cc(C(=O)*)ccc3C(=O)[O-])c3ccc(N(C)C)cc3[o+]c2c1; pT = C[C@@H](OP(=O)(O)O)[C@H](N)C(=O)O

In test [1] the test system is SW48 parental (KRAS WT) cells. The test is described as follows: Cell viability (SRB), SW48 parental. Type of test: cell-based. As to conditions: Homo sapiens; SW48 KRAS WT, Crizotinib with DMSO, SRB 72 hr; read-out: GI50. The protocol:
(§1) SW48 Parental, SW48 G12D, Panc-1, HPAF-II, Panc 02.03 and Panc 05.04 cell lines were seeded overnight at 5000 cells per well in a 96 well plate in recommended media (ATCC). Compounds were added the following day and viability was measured at 72h using the sulforhodamine B (SRB) colorimetric assay as follows. Cells were fixed by replacing media with 1% v/v Trichloroacetic Acid (TCA) (Sigma-Aldrich) at 4°C and incubated for 1h also at 4°C. Wells were washed thoroughly with copious amounts of deionised water before staining with Sulforhodamine B (SRB) (Sigma-Aldrich) solution (0.057% w/v in 1% v/v Acetic Acid (VWR)) for 30 min. Stain was aspirated and wells washed with several changes of 1% v/v Acetic Acid until unbound stain was removed, before air-drying. Bound stain was solubilized with 100μl / well 10mM Tris (pH 8.0) (Trizma Base (121.1) Sigma-Aldrich) with agitation for 10 min. Fluorescence intensity was recorded at Ex540nm / Em590nm using a BMG Pherastar Plus plate reader ([Vichai and Kirtikara, 2006]).

For the next test, the system named is SW48 KRAS G12D cells. The test is described as follows: Cell viability (SRB), SW48 KRAS G12D. It is filed as cell-based. The conditions noted are these: Homo sapiens; SW48 KRAS G12D, Crizotinib with DMSO, SRB 72 hr; read-out: GI50. The protocol:
as §1

The subject of test [2] is murine pancreatic organoids KRAS WT p53 MUT. The test is described as follows: Viability of pancreatic organoids (CellTitre Glo 3D), KRAS WT. Type of test: cell-based. The conditions noted are these: Mus musculus; organoids KRAS WT p53 MUT, Crizotinib plus DMSO, n=2; read-out: Mean GI50. The protocol:
(§2) Organoid cultures were prepared from the pancreas of LSL-Trp53^R172H/+, Pdx-1-Cre (for Kras WT organoids) or LSL-Trp53^R172H/+, LSL-Kras^G12D/+, Pdx-1-Cre (for Kras^G12D organoids KPC3760 and KPC26684) strains ([Hingorani et al., 2005]). Pancreatic ducts were manually picked after tissue mincing and overnight enzymatic digestion with 0.012% (w/v) collagenase XI (Sigma) and 0.012% (w/v) dispase (GIBCO) in DMEM media containing 1% FBS (GIBCO), before seeding in growth-factor-reduced (GFR) Matrigel (BD) ([Boj et al., 2015]).
(§3) Pancreatic organoids were extracted and cultured as detailed above ([Boj et al., 2015]). In brief, pancreatic organoids were seeded at 600 cells per well in a 96 well plate and allowed to grow for 7 days with media replenishment on the 3rd day. Full-grown organoids were then treated with compounds for 72h and viability determined using CellTitre Glo 3D assay (Promega). For viability assays with c-MET siRNA, cells were reverse transfected in a 6 cm dish using Dharmafect 1 (GE Dharmacon) per manufacturer’s instructions. On the following day, cells were trypsinised and plated onto 96 well plates or 6 well plates. The 96 well plates were treated with a dose range of compounds or DMSO, and viability was determined via SRB colorimetric assay. Cells in the 6 well plates were collected at the end of experiment to corroborate knockdown of c-MET by Western blotting.

For test [3], the system named is murine pancreatic organoids KRAS MUT p53 MUT. The test is described as follows: Viability of pancreatic organoids (CellTitre Glo 3D), KRAS G12D. Type of test: cell-based. As to conditions: Mus musculus; organoids KRAS MUT p53 MUT #2, Crizotinib plus DMSO, n=2; read-out: Mean GI50. On the procedure: as §2, §3
In another test the test system is Panc-1. The test is described as follows: Cell viability (SRB), Panc-1. Type of test: cell-based, human. The conditions noted are these: Homo sapiens. On the procedure:
as §1, §3
Cells were reverse-transfected with 50nM (SW48 parental, SW48 KRAS G12D and Panc-1) or 25nM (HeLa Flp-In T-REx parental cells) siRNA using Dharmafect (GE Dharmacon) as manufacturer’s recommendations. Where transfected cells were subsequently treated with compounds, the cells were allowed to settle overnight and then treated with compound at the indicated concentration the following day. Viability was assessed after 72 hrs, with the SRB colorimetric assay. Knockdown efficiencies were determined by Western blot or RT-qPCR. Oligos against the following target sequences were used. c-MET (Qiagen): […], […], […]. PLK1 (Qiagen): […]. PLK2 (SMARTpool; Dharmacon): ACACAGAAGGAGAACGAUA, CAUCAAUGAGGAUAGGAUA, CUGCCUAGUGUUACUGAUA, ACAAAGUCUACGCCGCAAA. PLK3 (SMARTpool; Dharmacon): GCGAGAAGAUCCUAAAUGA, GCAAGUGGGUUGACUACUC, GCACAUCCGUUGGCCAUCA, GACCUCAAGUUGGGAAAUU. PLK4 (Qiagen): […].

In another test the test system is Panc 02.03. The test is described as follows: Cell viability (SRB), Panc 02.03. It is filed as cell-based. As to conditions: Homo sapiens, Panc 02.03; read-out: Crizotinib GI50. On the procedure:
as §1
as §3, with “Cells in the 6 well plates were collected at the end of experiment to corroborate knockdown of c-MET by Western blotting.” left out
(§4) Cells were reverse-transfected with 50nM (SW48 parental, SW48 KRAS G12D and Panc-1) or 25nM (HeLa Flp-In T-REx parental cells) siRNA using Dharmafect (GE Dharmacon) as manufacturer’s recommendations. […] Viability was assessed after 72 hrs, with the SRB colorimetric assay. Knockdown efficiencies were determined by Western blot or RT-qPCR. […]

The subject of the next test is Panc 05.04. The test is described as follows: Cell viability (SRB), Panc 05.04. As to conditions: Homo sapiens, Panc 05.04; Panc 04.05; read-out: Crizotinib GI50. Type of test: cell-based. The protocol:
as §1
as §3, with “Cells in the 6 well plates were collected at the end of experiment to corroborate knockdown of c-MET by Western blotting.” left out
as §4

The next test relates to DLD-1. The test is described as follows: Cell viability, DLD-1. It is filed as cell-based. As to conditions: Homo sapiens, read-out: Crizotinib GI50.
The next test relates to SW116. The test is described as follows: Cell viability, SW1116. As to conditions: Homo sapiens, read-out: Crizotinib GI50. Type of test: cell-based.
The subject of a further test is HT29. The test is described as follows: Cell viability, HT29. As to conditions: Homo sapiens, HT-29, read-out: Crizotinib GI50. Type of test: cell-based.
In test [4] the target is T1, PLK2-PBD(356-681), Polo-box domain of human Polo-like kinase 2 (human, UniProt Q9NYY3 356-681).
T1 construct: Polo-like kinase 2 (PLK2), human, Polo-box domain, residues 356-681; also called PLK2 PBD (aa356-681); PLK2 PDB; source: E. coli C41, purified (GST-Sepharose column, cleaved on column with PreScission protease, gel chromatography)
T1 sequence (looked up): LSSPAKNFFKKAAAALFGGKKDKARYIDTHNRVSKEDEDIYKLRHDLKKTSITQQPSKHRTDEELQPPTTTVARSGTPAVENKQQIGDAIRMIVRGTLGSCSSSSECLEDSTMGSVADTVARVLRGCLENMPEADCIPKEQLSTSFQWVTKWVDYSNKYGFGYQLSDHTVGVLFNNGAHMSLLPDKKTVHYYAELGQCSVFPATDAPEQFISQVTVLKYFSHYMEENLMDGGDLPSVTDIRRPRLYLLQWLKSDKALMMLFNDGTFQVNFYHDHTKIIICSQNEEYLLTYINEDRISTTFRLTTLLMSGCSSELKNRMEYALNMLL
The test is described as follows: fluorescence polarisation; competition format: TAMRA-labelled phosphopeptide 10 nM, PBD 84 nM (2.5 ng/ul), PBS pH 7.4 plus 0.03% tween; compound and PBD incubated together at 22 C for 1 hour before the peptide was added; same procedure for PLK2 PBD with its own peptide. As to conditions: both partners purified. In general terms: Fluorescence polarisation rises when a labelled molecule tumbles more slowly, as on binding a larger partner.

`C[C@@H](Oc1cc(-c2cnn(C3CCNCC3)c2)cnc1N)c1c(Cl)ccc(F)c1Cl` [Crizotinib, reference compound]: the GI50 in test [1] was found to be 560 ± 20 nM; in the test with SW48 KRAS G12D cells it was 630 ± 10 nM; in [2] it was 17600 nM; in test [3] it was 6800 nM; with Panc-1 (PANC-1, 72 h, Panc-1, individual compound, 72 hr, Figure 7F/7G, read-out: Abs GI50) it was 2500 nM; with Panc-1 (PANC-1, Panc-1, read-out: Crizotinib GI50) it was 7240 nM. The GI50 in the test on Panc 02.03 stood at 960 nM; in the test with Panc 05.04, 91 nM; in the test on DLD-1, 1620 nM; in the test with SW116 it was 4730 nM; in the test on HT29, 3850 nM. Besides, the EC50 with Panc-1 (Panc-1, c-MET inhibitor alone, SRB 72 h, Figure S5C, read-out: EC50, % survival) came to 3500 ± 1040 nM.

B1: TAMRA-MAGPMQTS(pThreonine)PKNGAKK, consensus binding phosphopeptide used with the PLK2 PBD (peptide)
peptide: {TAMRA}-MAGPMQTS[pT]PKNGAKK
notes: the second T of 'TST' is phosphothreonine; also called phosphopeptide substrate; source: bought: Designer Bioscience
In the case of B1, the binding result in [4] was “binds”.

What is called GI50 is the concentration giving 50% growth inhibition. Usually EC50 stands for the concentration at which the effect is half-maximal.
